Results from patent publication US10583137B2, “Triazole DAGLα inhibitors” (THE SCRIPPS RESEARCH INSTITUTE, priority 2015, dated 2020).
Where two headings read alike, the source gives them in different places.

What was measured:
[1] = molecular target: DAGLα (hDAGLα-FLAG) (Homo sapiens (Human), UniProt Q9Y4D2); assay: competitive ABPP, membrane proteome of transfected HEK293T cells; assay type: biochemical; details: for inhibition at 0.8 µM / DAGLα % inh. 0.8 μM: 0.8 μM (stated under the cell); for inhibition at 0.8 µM: read-out: DAGLα % inh. 0.8 μM; for inhibition at 0.0032 µM: 3.2 nM, read-out: DAGLα % inh. 3.2 nM
Description: (§1) Compounds 19 and 20 were tested for in vitro inhibition of DAGLα and DAGLβ as measured by competitive activity-based protein profiling (ABPP) of […] using a HT-01 probe (targets DAGLα and DAGLβ) and a FP-Rh probe (targets serine hydrolases).
(§2) Briefly, membrane proteome (1 mg/ml, 20 μL) was prepared from HEK293T cells (transiently transfected with hDAGLα-FLAG or hDAGLα-S472A-FLAG, hDAGLβ-FLAG or hDAGLβ-S443A-FLAG) as described in Example 16. The proteome was incubated at room temperature with vehicle (DMSO) or compound in 0.5 μL DMSO for 30 min. The membrane proteome sample was subsequently treated for 30 min with HT-01 probe (1 μM) or FP-Rh probe (1 μM). The reactions were quenched with 10 μL 3× Laemmli sample buffer (final concentrations: 60 mM Tris-Cl pH 6.8, 2% (w/v) SDS, 10% (v/v) glycerol, 5% (v/v) (3-mercaptoethanol, 0.01% (v/v) bromophenol blue). The samples were directly loaded and resolved on SDS page gel (10% acrylamide). The gels were scanned using a ChemiDoc MP system (Cy3 settings, 605/50 filter).
(§3) The resolved proteins were transferred from the gels to a polyvinyldifluoride membrane for Western Blotting using a Trans-Blot® Turbo (BioRad). FLAG-tagged enzymes were stained using rabbit anti-FLAG as primary antibody, and goat-anti-rabbit HRP as secondary antibody. The blot was developed in the dark using a 10 mL luminal solution, 100 μL ECL enhancer and 3 μL H2O2. Chemiluminescence was visualized using a ChemiDoc XRS (BioRad).
(§4) The percentage of DAGL activity remaining in the assayed samples was determined by measuring the integrated optical intensity of the fluorescent protein bands of the Western Blot using image lab 4.1. The relative intensity was compared to the vehicle (DMSO) treated proteins, which were set to 100%. IC50 values were determined by plotting a log(inhibitor) vs. normalized response (Variable slope) dose-response curve generated using Prism software (GraphPad).

[2] = molecular target: DAGLβ (hDAGLβ-FLAG) (Homo sapiens (Human), UniProt Q8NCG7); assay: as above; assay type: biochemical; details: for inhibition at 0.8 µM: read-out: DAGLβ % inh. 0.8 μM; for inhibition at 0.0032 µM: read-out: DAGLβ % inh. 3.2 nM
Description: as §1, §2, §3, §4

[3] = ABPP method, n=3, read-out: IC50, DAGLα
[4] = ABPP method, n=3, read-out: IC50, DAGLβ

Sequence of DAGLβ (hDAGLβ-FLAG) (Q8NCG7 whole entry): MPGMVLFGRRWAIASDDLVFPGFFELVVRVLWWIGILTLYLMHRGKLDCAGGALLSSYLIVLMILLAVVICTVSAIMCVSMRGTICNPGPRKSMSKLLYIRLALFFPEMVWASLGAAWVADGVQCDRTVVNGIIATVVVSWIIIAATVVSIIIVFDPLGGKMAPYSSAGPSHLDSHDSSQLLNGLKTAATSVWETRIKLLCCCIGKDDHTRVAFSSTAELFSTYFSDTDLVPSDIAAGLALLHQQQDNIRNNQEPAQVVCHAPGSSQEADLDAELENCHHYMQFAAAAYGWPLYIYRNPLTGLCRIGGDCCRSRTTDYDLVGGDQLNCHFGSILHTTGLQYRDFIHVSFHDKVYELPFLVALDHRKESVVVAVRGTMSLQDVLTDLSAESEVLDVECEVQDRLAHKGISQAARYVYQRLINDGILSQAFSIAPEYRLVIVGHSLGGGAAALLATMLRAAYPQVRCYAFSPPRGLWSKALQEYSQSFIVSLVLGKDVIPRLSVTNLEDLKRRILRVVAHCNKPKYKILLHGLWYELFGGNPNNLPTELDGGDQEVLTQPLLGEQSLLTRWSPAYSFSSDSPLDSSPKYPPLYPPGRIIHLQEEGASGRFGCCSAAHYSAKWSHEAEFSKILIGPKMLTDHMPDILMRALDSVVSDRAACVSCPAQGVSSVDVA
Sequence of DAGLα (hDAGLα-FLAG) (Q9Y4D2 whole entry): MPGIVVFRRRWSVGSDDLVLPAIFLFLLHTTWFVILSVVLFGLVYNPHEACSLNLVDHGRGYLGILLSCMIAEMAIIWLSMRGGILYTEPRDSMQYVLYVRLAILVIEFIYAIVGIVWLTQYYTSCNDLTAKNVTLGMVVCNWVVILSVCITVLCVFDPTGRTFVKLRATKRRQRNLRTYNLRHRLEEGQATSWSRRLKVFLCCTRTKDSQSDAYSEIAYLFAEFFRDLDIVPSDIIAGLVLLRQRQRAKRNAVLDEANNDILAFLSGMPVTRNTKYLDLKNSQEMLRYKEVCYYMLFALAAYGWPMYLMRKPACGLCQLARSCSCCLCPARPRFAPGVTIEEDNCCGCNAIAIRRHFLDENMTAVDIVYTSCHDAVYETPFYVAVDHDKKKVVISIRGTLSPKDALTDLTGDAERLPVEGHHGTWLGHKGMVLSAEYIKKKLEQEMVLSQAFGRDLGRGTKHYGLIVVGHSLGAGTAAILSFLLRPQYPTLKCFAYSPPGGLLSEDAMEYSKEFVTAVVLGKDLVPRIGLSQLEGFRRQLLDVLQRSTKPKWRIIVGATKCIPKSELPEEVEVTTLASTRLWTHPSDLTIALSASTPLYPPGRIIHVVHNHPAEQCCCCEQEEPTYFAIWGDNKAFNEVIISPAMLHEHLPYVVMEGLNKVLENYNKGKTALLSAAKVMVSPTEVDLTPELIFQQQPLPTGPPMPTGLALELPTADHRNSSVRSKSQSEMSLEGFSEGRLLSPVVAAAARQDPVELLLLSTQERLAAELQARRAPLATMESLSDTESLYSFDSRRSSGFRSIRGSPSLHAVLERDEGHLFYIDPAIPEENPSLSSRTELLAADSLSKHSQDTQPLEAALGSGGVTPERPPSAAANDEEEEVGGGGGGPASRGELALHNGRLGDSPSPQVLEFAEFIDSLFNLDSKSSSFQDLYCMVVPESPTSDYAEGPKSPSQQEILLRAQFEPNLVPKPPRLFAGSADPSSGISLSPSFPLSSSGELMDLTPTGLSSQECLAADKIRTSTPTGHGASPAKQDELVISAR

| SMILES | IC50 ([1]; read-out: DAGLα IC50) [nM] | IC50 ([2]; read-out: DAGLβ IC50) [nM] | other results |
| --- | --- | --- | --- |
| COc1cncc(OC)c1-c1ccc(-c2cn(C(=O)N3CCCCC3Cc3ccccc3)nn2)cc1 (centres unmarked) [Compound 19, (2-Benzylpiperidin-1-yl)(4-(4-(3,5-dimethoxypyridin-4-yl)phenyl)-1H-1,2,3-triazol-1-yl)methanone] | ≤ 400 | ≤ 400 | IC50 [1, 3]: 9.5 nM; IC50 [2, 4]: 106 nM |
| COc1cc(OC)c(-c2ccc(-c3cn(C(=O)N4CCCCC4Cc4ccccc4)nn3)cc2)c(OC)c1 (centres unmarked) [Compound 20, (2-Benzylpiperidin-1-yl)(4-(2′,4′,6′-trimethoxybiphenyl-4-yl)-1H-1,2,3-triazol-1-yl)methanone] | ≤ 400 | ≤ 400 | IC50 [1, 3]: 16 nM; IC50 [2, 4]: 319 nM |
| CC(C)(C)OC(=O)N1CCN(C(=O)n2ncc(-c3ccc(OC(F)(F)F)cc3)n2)C(c2ccccc2)C1 (centres unmarked) [Compound 23, tert-butyl 3-phenyl-4-(4-(4-(trifluoromethoxy)phenyl)-2H-1,2,3-triazole-2-carbonyl)piperazine-1-carboxylate] |  |  | inhibition at 0.8 µM [1]: 0 to 25%; inhibition at 0.8 µM ([2]; 0.8 μM (stated under the cell)): 0 to 25% |
| CC(C)C(=O)N1CCN(C(=O)n2cc(-c3ccc(OC(F)(F)F)cc3)nn2)C(Cc2ccccc2)C1 (centres unmarked) [Compound 26, 1-(3-benzyl-4-(4-(4-(trifluoromethoxy)phenyl)-1H-1,2,3-triazole-1-carbonyl)piperazin-1-yl)-2-methylpropan-1-one] |  |  | DAGLα % inh. 0.8 μM [1]: * (% inhibition greater than or equal to 0% and less than 25%); inhibition at 0.8 µM ([2]; 0.8 μM (stated under the cell)): 0 to 25% |
| CC(C)C(=O)N1CCN(C(=O)n2ncc(-c3ccc(OC(F)(F)F)cc3)n2)C(Cc2ccccc2)C1 (centres unmarked) [Compound 27, 1-(3-benzyl-4-(4-(4-(trifluoromethoxy)phenyl)-2H-1,2,3-triazole-2-carbonyl)piperazin-1-yl)-2-methylpropan-1-one] |  |  | inhibition at 0.8 µM [1]: 0 to 25%; inhibition at 0.8 µM ([2]; 0.8 μM (stated under the cell)): 0 to 25% |
| CC(C)C(=O)N1CCN(C(=O)n2cc(-c3ccc(OC(F)(F)F)cc3)nn2)C(Cc2ccccc2)C1 (centres unmarked) [Compound 30, 1-(3-benzyl-4-(4-(4-(trifluoromethoxy)phenyl)-1H-1,2,3-triazole-1-carbonyl)piperazin-1-yl)-2-methylpropan-1-one] |  |  | DAGLα % inh. 0.8 μM [1]: *** (% inhibition greater than or equal to 50% and less than 75%); DAGLβ % inh. 0.8 μM ([2]; 0.8 μM (stated under the cell)): * (% inhibition greater than or equal to 0% and less than 25%) |
| C#CCCCC(=O)N1CCN(C(=O)n2cc(-c3ccc(OC(F)(F)F)cc3)nn2)C(Cc2ccccc2)C1 (centres unmarked) [Compound 34, 1-(3-benzyl-4-(4-(4-(trifluoromethoxy)phenyl)-1H-1,2,3-triazole-1-carbonyl)piperazin-1-yl)hex-5-yn-1-one] |  |  | inhibition at 0.8 µM [1]: 25 to 50%; inhibition at 0.8 µM ([2]; 0.8 μM (stated under the cell)): 0 to 25% |
| C#CCCCC(=O)N1CCN(C(=O)n2ncc(-c3ccc(OC(F)(F)F)cc3)n2)C(Cc2ccccc2)C1 (centres unmarked) [Compound 35, 1-(3-benzyl-4-(4-(4-(trifluoromethoxy)phenyl)-2H-1,2,3-triazole-2-carbonyl)piperazin-1-yl)hex-5-yn-1-one] |  |  | inhibition at 0.8 µM [1]: 0 to 25%; inhibition at 0.8 µM ([2]; 0.8 μM (stated under the cell)): 0 to 25% |
| O=C(N1C[C@@H](OCC2CC2)CC[C@@H]1Cc1ccccc1)n1cc(-c2ccc(OC(F)(F)F)cc2)nn1 [Compound 44, ((2R,5S)-2-benzyl-5-(cyclopropylmethoxy)piperidin-1-yl)(4-(4-(trifluoromethoxy)phenyl)-1H-1,2,3-triazol-1-yl)methanone] |  |  | inhibition at 0.0032 µM [1]: 25 to 50%; inhibition at 0.0032 µM [2]: 0 to 25% |
| O=C(N1C[C@@H](OCC2CC2)CC[C@@H]1Cc1ccccc1)n1ncc(-c2ccc(OC(F)(F)F)cc2)n1 [Compound 45, ((2R,5S)-2-benzyl-5-(cyclopropylmethoxy)piperidin-1-yl)(4-(4-(trifluoromethoxy)phenyl)-2H-1,2,3-triazol-2-yl)methanone] |  |  | inhibition at 0.0032 µM [1]: 25 to 50%; inhibition at 0.0032 µM [2]: 0 to 25% |
| O=C(N1C[C@H](O)C=C[C@@H]1COCc1ccccc1)n1cc(-c2ccc(OC(F)(F)F)cc2)nn1 [Compound 50, ((3R,6R)-6-((Benzyloxy)methyl)-3-hydroxy-3,6-dihydropyridin-1(2H)-yl)(4-(4-(trifluoromethoxy)phenyl)-1H-1,2,3-triazol-1-yl)methanone] |  |  | inhibition at 0.0032 µM [1]: 0 to 25%; inhibition at 0.0032 µM [2]: 0 to 25% |
| O=C(N1C[C@H](O)C=C[C@@H]1COCc1ccccc1)n1ncc(-c2ccc(OC(F)(F)F)cc2)n1 [Compound 51, ((3R,6R)-6-((Benzyloxy)methyl)-3-hydroxy-3,6-dihydropyridin-1(2H)-yl)(4-(4-(trifluoromethoxy)phenyl)-2H-1,2,3-triazol-2-yl)methanone] |  |  | inhibition at 0.0032 µM [1]: 0 to 25%; inhibition at 0.0032 µM [2]: 0 to 25% |
| CCC(CC)CN(CCc1ccncc1)C(=O)n1cc(-c2ccc(OC(F)(F)F)cc2)nn1 [Compound 53, N-(2-Ethylbutyl)-N-(2-(pyridin-4-yl)ethyl)-4-(4-(trifluoromethoxy)phenyl)-1H-1,2,3-triazole-1-carboxamide] | 400 to 2000 | ≤ 400 |  |
| CCC(CC)CN(CCc1ccncc1)C(=O)n1ncc(-c2ccc(OC(F)(F)F)cc2)n1 [Compound 54, N-(2-Ethylbutyl)-N-(2-(pyridin-4-yl)ethyl)-4-(4-(trifluoromethoxy)phenyl)-2H-1,2,3-triazole-2-carboxamide] | > 10000 | 2000 to 10000 |  |
| O=C(N1CCCCC1Cc1ccccc1)n1cc(-c2ccc(-c3ccncc3)cc2)nn1 (centres unmarked) [Compound 59, (2-benzylpiperidin-1-yl)(4-(4-(pyridin-4-yl)phenyl)-1H-1,2,3-triazol-1-yl)methanone] | 400 to 2000 | 2000 to 10000 |  |
| O=C(N1CCCCC1Cc1ccccc1)n1cc(-c2ccc(-c3cccnc3)cc2)nn1 (centres unmarked) [Compound 60, (2-benzylpiperidin-1-yl)(4-(4-(pyridin-3-yl)phenyl)-1H-1,2,3-triazol-1-yl)methanone] | ≤ 400 | 2000 to 10000 |  |
| O=C(N1CCCCC1Cc1ccccc1)n1cc(-c2ccc(-c3ccccn3)cc2)nn1 (centres unmarked) [Compound 61, (2-benzylpiperidin-1-yl)(4-(4-(pyridin-2-yl)phenyl)-1H-1,2,3-triazol-1-yl)methanone] | 400 to 2000 | 2000 to 10000 |  |
| COc1ccc(-c2ccc(-c3cn(C(=O)N4CCCCC4Cc4ccccc4)nn3)cc2)c(OC)c1 (centres unmarked) [Compound 62, (2-benzylpiperidin-1-yl)(4-(2′,4′-dimethoxy-[1,1′-biphenyl]-4-yl)-1H-1,2,3-triazol-1-yl)methanone] | ≤ 400 | 2000 to 10000 |  |
| COc1cccc(OC)c1-c1ccc(-c2cn(C(=O)N3CCCCC3Cc3ccccc3)nn2)cc1 (centres unmarked) [Compound 63, (2-benzylpiperidin-1-yl)(4-(2′,6′-dimethoxy-[1,1′-biphenyl]-4-yl)-1H-1,2,3-triazol-1-yl)methanone] | ≤ 400 | 2000 to 10000 |  |
| COc1cc(C)cc(OC)c1-c1ccc(-c2cn(C(=O)N3CCCCC3Cc3ccccc3)nn2)cc1 (centres unmarked) [Compound 64, (2-benzylpiperidin-1-yl)(4-(2′,6′-dimethoxy-4′-methyl-[1,1′-biphenyl]-4-yl)-1H-1,2,3-triazol-1-yl)methanone] | ≤ 400 | 2000 to 10000 |  |
| COc1cnccc1-c1ccc(-c2cn(C(=O)N3CCCCC3Cc3ccccc3)nn2)cc1 (centres unmarked) [Compound 65, (2-benzylpiperidin-1-yl)(4-(4-(3-methoxypyridin-4-yl)phenyl)-1H-1,2,3-triazol-1-yl)methanone] | 400 to 2000 | 2000 to 10000 |  |
| O=C(N1CCCCC1Cc1ccncc1)n1cc(-c2ccc(-c3ccccc3)cc2)nn1 (centres unmarked) [Compound 66, (4-([1,1′-biphenyl]-4-yl)-1H-1,2,3-triazol-1-yl)(2-(pyridin-4-ylmethyl)piperidin-1-yl)methanone] | ≤ 400 | ≤ 400 |  |
| COc1cc(OC)c(-c2ccc(-c3cn(C(=O)N4CCCCC4Cc4ccncc4)nn3)cc2)c(OC)c1 (centres unmarked) [Compound 67, (2-(pyridin-4-ylmethyl)piperidin-1-yl)(4-(2′,4′,6′-trimethoxy-[1,1′-biphenyl]-4-yl)-1H-1,2,3-triazol-1-yl)methanone] | ≤ 400 | 2000 to 10000 |  |
| COc1cc(C)cc(OC)c1-c1ccc(-c2cn(C(=O)N3CCCCC3Cc3ccncc3)nn2)cc1 (centres unmarked) [Compound 68, (4-(2′,6′-dimethoxy-4′-methyl-[1,1′-biphenyl]-4-yl)-1H-1,2,3-triazol-1-yl)(2-(pyridin-4-ylmethyl)piperidin-1-yl)methanone] | ≤ 400 | 2000 to 10000 |  |
| CCC(CC)CN(CCc1ccccc1)C(=O)n1ncc(-c2ccc(OC(F)(F)F)cc2)n1 [Compound 126, N-(2-ethylbutyl)-N-phenethyl-4-(4-(trifluoromethoxy)phenyl)-2H-1,2,3-triazole-2-carboxamide] | 2000 to 10000 |  |  |
